Measurements as given in patent publication US20240344145A1, “PHARMACOGENOMICS SCORE TO MAKE DECISIONS ON THERAPY AUGMENTATION IN AML” (University of Florida Research Foundation, Incorporated, priority 2021, published 2024).

Key:
[1] = tested on: AML patients (1 month to 29.9 years old); assay: COG-AAML0531 clinical trial, ADE vs ADE+GO arms: MRD1, EFS and OS overall and by ACS10 score and CD33 SNP; format: in vivo, human; settings: low ACS10 score
Description: AAML0531 clinical trial enrolled previously untreated AML patients (1 month to 29.9 years old) who were randomized to receive ADE (cytarabine 100 mg/m^2/dose twice per day for […] alongside with daunorubicin and etoposide-equivalent to LDAC arm of St. Jude AML02) with or without the addition of 1 dose in induction 1 and 1 dose in intensification of CD33-targeting drug gemtuzumab ozogamicin (ADE+GO arm). Genotype data on 10 SNPs that were part of the ACS10 score in the discovery cohort was generated in 931 patients (n=465 in standard ADE arm and n=466 in ADE+GO arm). […] In subsequent analysis to check whether ACS10 score has impact on the GO addition, the evaluation of patients from the ADE+GO arm was also considered.
The association of MRD1, EFS, and OS was evaluated with ACS10 scores in the AML02 discovery cohort and the AAML0531 validation cohort. The Kaplan-Meier method was used to estimate the EFS and OS probabilities for well-defined groups of patients. Cox regression models were used to associate ACS10 with EFS and OS and used logistic regression models to associate ACS10 with MRD1. The Wilcoxon rank-sum test and Kruskal-Wallis test were used to compare medians of numeric variables across groups. Chi-square tests and Fisher's exact test were used to evaluate the association among pairs of categorical variables. All p-values are two-sided. […]

[2] = tested on: AML patients (1 month to 29.9 years old); settings: previously reported, cited from earlier work

gemtuzumab ozogamicin [GO]
benefit from adding GO (EFS and OS) ([1]; CD33 rs12459419 CC genotype): benefit from adding GO | benefit from addition of GO (EFS and OS) ([1]; CT/TT genotype for CD33 rs12459419): do not benefit from addition of GO | benefit from addition of GO to standard chemotherapy ([2]; CD33 rs12459419 CT/TT genotypes, ADE+GO versus ADE): derived no benefit from addition of GO | survival (EFS and DFS) with addition of GO to standard chemotherapy ([2]; CD33 rs12459419 homozygous CC genotype): significantly better survival
